Test results taken from the supplement of paper PMC10307832.

Tests used:
Test in all cases: relative viability (nuclei count vs DMSO), 5 days (fraction); higher = more cells survive
TPCA-1 + Alpelisib = compound: C1=CC(=CC=C1C2=CC(=C(S2)NC(=O)N)C(=O)N)F [TPCA-1] + Cc1nc(NC(=O)N2CCC[C@H]2C(N)=O)sc1-c1ccnc(C(C)(C)C(F)(F)F)c1 [Alpelisib] (partner 2 µM)
Summary of the method: (§1)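 Relative viability equals treated-well nuclei counts divided by vehicle-well nuclei counts. Counts came from 4× images of lung cancer cell lines grown in 1536-well plates for 5 days after pin-tool dosing on the day after seeding. Dosing used one drug alone or a fixed anchor-drug dose plus five library-drug doses (not always all listed) in √10 steps, and values are medians of duplicate plates.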

[1] = compound: C1/C(=C\C2=CC=CS2)/C(=O)/C(=C/C3=CC=CS3)/C1 + COc1cc2c(Oc3ccc(NC(=O)C4(C(=O)Nc5ccc(F)cc5)CC4)cc3F)ccnc2cc1OCCCN1CCOCC1 [Foretinib] (partner 0.25 µM)
Summary of the method: as §1

TPCA-1 + Navitoclax = compound: C1=CC(=CC=C1C2=CC(=C(S2)NC(=O)N)C(=O)N)F [TPCA-1] + CC1(C)CCC(c2ccc(Cl)cc2)=C(CN2CCN(c3ccc(C(=O)NS(=O)(=O)c4ccc(N[C@H](CCN5CCOCC5)CSc5ccccc5)c(S(=O)(=O)C(F)(F)F)c4)cc3)CC2)C1 [Navitoclax] (partner 0.5 µM)
Summary of the method: as §1

[2] = compound: C[C@]12O[C@H](C[C@]1(O)CO)n1c3ccccc3c3c4c(c5c6ccccc6n2c5c31)CNC4=O [Lestaurtinib] + CC(=O)Nc1cccc(-n2c(=O)n(C3CC3)c(=O)c3c(Nc4ccc(I)cc4F)n(C)c(=O)c(C)c32)c1 [Trametinib] (partner 0.02 µM)
Summary of the method: as §1

| Cell Line | relative viability (TPCA-1 + Alpelisib; first compound 0.04 µM) | relative viability (TPCA-1 + Alpelisib; first compound 0.1265 µM) | relative viability (TPCA-1 + Alpelisib; first compound 0.4 µM) | relative viability (TPCA-1 + Alpelisib; first compound 1.265 µM) | relative viability (TPCA-1 + Alpelisib; first compound 4 µM) | relative viability ([1]; first compound 0.2 µM) | relative viability ([1]; first compound 0.6325 µM) | relative viability ([1]; first compound 2 µM) | relative viability ([1]; first compound 6.325 µM) | relative viability ([1]; first compound 20 µM) | relative viability (TPCA-1 + Navitoclax; first compound 0.04 µM) | relative viability (TPCA-1 + Navitoclax; first compound 0.1265 µM) | relative viability (TPCA-1 + Navitoclax; first compound 0.4 µM) | relative viability (TPCA-1 + Navitoclax; first compound 1.265 µM) | relative viability (TPCA-1 + Navitoclax; first compound 4 µM) | relative viability ([2]; first compound 0.005 µM) | relative viability ([2]; first compound 0.01581 µM) | relative viability ([2]; first compound 0.05 µM) | relative viability ([2]; first compound 0.1581 µM) | relative viability ([2]; first compound 0.5 µM) |
| --- | --- | --- | --- | --- | --- | --- | --- | --- | --- | --- | --- | --- | --- | --- | --- | --- | --- | --- | --- | --- |
| LK-2 | 1.23 | 0.758 | 0.946 | 0.692 | 0.627 | 1.57 | 1.51 | 1.11 | 1.18 | 1.41 | 0.868 | 0.664 | 0.955 | 0.778 | 0.71 | 0.778 | 0.941 | 0.718 | 0.65 | 0.293 |
| LOU-NH91 | 0.769 | 0.652 | 0.736 | 0.78 | 0.669 | 0.953 | 0.921 | 0.919 | 0.827 | 0.944 | 0.822 | 0.585 | 0.692 | 0.65 | 0.507 | 0.759 | 0.749 | 0.679 | 0.625 | 0.548 |
| LU99A | 0.564 | 0.445 | 0.5 | 0.388 | 0.243 | 0.794 | 0.853 | 1.01 | 0.753 | 0.89 | 0.976 | 0.77 | 0.802 | 0.766 | 0.473 | 0.55 | 0.522 | 0.439 | 0.231 | 0.145 |
| LXF-289 | 1.07 | 0.951 | 1.05 | 0.955 | 0.783 | 0.982 | 0.959 | 0.973 | 0.994 | 0.98 | 0.937 | 0.907 | 0.949 | 0.915 | 0.839 | 0.66 | 0.691 | 0.494 | 0.467 | 0.159 |
| NCI-H23 | 0.756 | 0.665 | 0.705 | 0.587 | 0.512 | 0.973 | 1.13 | 1.07 | 0.851 | 0.991 | 0.823 | 0.742 | 0.687 | 0.616 | 0.694 | 0.377 | 0.455 | 0.35 | 0.408 | 0.225 |
| NCI-H322M | 0.846 | 0.74 | 0.764 | 0.688 | 0.785 | 1 | 1.06 | 1.1 | 0.855 | 0.874 | 1.26 | 1.07 | 1.18 | 1.13 | 1.17 | 0.507 | 0.567 | – | 0.512 | 0.672 |
| NCI-H441 | 0.903 | 0.497 | 0.611 | 0.439 | 0.327 | 1.11 | 0.913 | 1.15 | 0.867 | 0.927 | 0.604 | 0.405 | 0.736 | 0.578 | 0.297 | 0.458 | 0.441 | 0.346 | 0.389 | 0.34 |
| NCI-H460 | 0.638 | 0.464 | 0.518 | 0.373 | 0.105 | 1.02 | 1.06 | 1.02 | 0.881 | 0.99 | 1.24 | 1.04 | 1 | 1.1 | 0.709 | 0.237 | 0.201 | 0.144 | 0.142 | 0.0705 |
| NCI-H520 | 0.869 | 0.783 | 0.844 | 0.892 | 0.788 | 0.842 | 0.93 | 0.804 | 0.711 | 0.632 | 1.17 | 0.96 | 1.1 | 0.977 | 1.08 | 0.715 | 0.676 | 0.534 | 0.42 | 0.211 |
| NCI-H596 | 0.545 | 0.485 | 0.442 | 0.428 | 0.345 | 0.895 | 0.847 | 0.872 | 0.753 | 0.905 | 0.88 | 0.932 | 1.07 | 0.996 | 1.07 | 0.691 | 0.842 | 0.848 | 0.993 | 0.845 |
| NCI-H647 | 1.35 | 1.04 | 1.23 | 0.834 | 0.562 | 1.21 | 1.22 | 1.11 | 0.948 | 1.21 | 1.1 | 0.9 | 1.22 | 0.67 | 0.706 | 0.478 | 0.41 | 0.22 | 0.29 | 0.169 |
| NCI-H727 | 0.591 | 0.485 | 0.597 | 0.504 | 0.507 | 0.907 | 0.802 | 1.1 | 0.815 | 0.96 | 0.409 | 0.431 | 0.512 | 0.413 | 0.404 | 0.375 | 0.452 | 0.423 | – | 0.405 |
| NCI-H838 | 0.981 | 0.882 | 0.957 | 0.857 | 0.716 | 0.998 | 1.1 | 1.04 | 0.812 | 0.968 | 1.23 | 0.985 | 1.13 | 0.995 | 0.812 | 0.559 | 0.497 | 0.486 | 0.333 | 0.0966 |
| NCI-H1355 | 0.802 | 0.567 | 0.871 | 0.761 | 0.555 | 1.01 | 0.877 | 0.995 | 0.913 | 0.954 | 1.02 | 0.903 | 0.912 | 0.826 | 0.686 | 0.481 | 0.435 | 0.359 | 0.318 | 0.285 |
| NCI-H1395 | 1.16 | 0.997 | 1.14 | 1.07 | 0.941 | 0.992 | 0.945 | 1.18 | 0.861 | 1.01 | 1.2 | 0.932 | 1.25 | 1.05 | 0.99 | 1.17 | 0.896 | 0.927 | 0.923 | 0.608 |
| NCI-H1437 | 0.959 | 0.869 | 1.04 | 0.85 | 0.755 | 1.31 | 1.3 | 1.25 | 1.1 | 1.23 | 1.11 | 1.05 | 1.13 | 1.07 | 1.08 | 0.569 | 0.684 | 0.56 | 0.691 | 0.603 |
| NCI-H1651 | 1.03 | 0.82 | 0.988 | 1.09 | 0.863 | 0.797 | 0.815 | 0.785 | 0.671 | 0.692 | 0.97 | 0.913 | 0.947 | 1.16 | 0.995 | 0.86 | 0.919 | 0.887 | 0.832 | 0.77 |
| NCI-H1666 | 1.08 | 0.813 | 0.925 | 1.04 | 0.747 | 0.99 | 1.01 | 0.965 | 0.865 | 0.958 | 1.12 | 0.848 | 1.03 | 0.943 | 1.05 | 0.898 | 0.892 | 0.882 | 0.88 | 0.781 |
| NCI-H1734 | 0.726 | 0.571 | 0.767 | 0.69 | 0.686 | 0.805 | 0.939 | 0.92 | 0.797 | 0.818 | 0.893 | 0.759 | 0.871 | 0.779 | 0.697 | 0.788 | 0.788 | 0.712 | 0.478 | 0.267 |
| NCI-H1755 | 0.937 | 0.88 | 0.893 | 0.806 | 0.526 | 0.931 | 0.959 | 1.01 | 0.817 | 0.928 | 0.998 | 0.95 | 0.949 | 0.847 | 0.696 | 0.766 | 0.774 | 0.731 | 0.571 | 0.407 |
| NCI-H1793 | 0.724 | 0.646 | 0.735 | 0.828 | 0.566 | 0.754 | 0.629 | 0.783 | 0.579 | 0.625 | 0.425 | 0.354 | 0.413 | 0.342 | 0.319 | 0.425 | 0.467 | 0.432 | 0.461 | 0.346 |
| NCI-H1915 | 1.11 | 1.05 | 1.08 | 1.03 | 0.936 | 1.09 | 1.1 | 1.01 | 1.07 | 1.1 | 0.788 | 0.733 | 0.783 | 0.771 | 0.694 | 0.318 | 0.254 | 0.253 | 0.12 | 0.0799 |
| NCI-H1944 | 0.859 | 0.799 | 0.815 | 0.744 | 0.658 | 0.918 | 0.828 | 0.89 | 0.844 | 0.859 | 1.07 | 0.949 | 1.06 | 0.921 | 0.823 | 0.408 | 0.464 | 0.386 | 0.345 | 0.292 |
| NCI-H1975 | 0.768 | 0.561 | 0.611 | 0.561 | 0.279 | 0.971 | 0.979 | – | 0.771 | 0.895 | 1.16 | 1.02 | 1.1 | 0.904 | 0.782 | 0.344 | 0.33 | 0.348 | 0.262 | 0.209 |
| NCI-H1993 | 0.654 | – | 0.711 | 0.633 | 0.731 | 0.748 | 0.751 | 0.75 | 0.572 | 0.745 | 1.01 | – | 0.794 | 0.756 | 0.809 | 0.553 | 0.505 | 0.483 | 0.498 | 0.418 |
| NCI-H2009 | 1.2 | 1.13 | 1.13 | 1.1 | 1.2 | 1.31 | 1.23 | 1.2 | 1.2 | 1.21 | 1.2 | 1.18 | 1.08 | 1.19 | 1.12 | 0.28 | 0.233 | 0.206 | 0.235 | 0.185 |
| NCI-H2023 | 0.598 | 0.522 | 0.634 | 0.489 | 0.417 | – | 0.949 | 0.998 | 0.82 | 1.05 | 1.14 | 0.98 | 1.04 | 0.938 | 0.912 | 0.557 | 0.712 | 0.599 | 0.354 | 0.132 |
